The assay deals with ACE. Put plainly: ACE inhibition (IC50) of synthesized peptides. The format is biochemical. As for the experimental part: The ACE inhibition activity was assayed according to the method 15 of Matsui et al. (Matsui, T. et al. (1992) Biosci. Biotech. Biochem. 56: 517-518) with the modifications described below.
For each sample 75 μl 3 mM hippuryl histidine leucine (Hip-His-Leu, Sigma chemicals Co.; the chemical was dissolved in 250 mM Borate containing 200 mM NaCl, pH 8.3); 20 μl 0.1 U/ml ACE (obtained at Sigma) or H2 O, and 25 μl sample or H2O were mixed (see Table 1). The mixtures were incubated at 37° C. and stopped after 30 min by adding 125 μl 0.5 M HCl. Subsequently, 225 μl bicine/NaOH solution (1 M NaOH : 0.25 M bicine (4:6)) was added, followed by […] 0.1 M TNBS (2,4,6-Trinitrobenzenesulfonic acid, Fluka, Switzerland; in 0.1 M Na2HPO4). After incubation for 20 min. at 37° C., 4 ml 4 mM Na2SO3 in 0.2 M NaH2PO4 was added and the absorbance at 416 nm was measured with UV/Vis spectrophotometer (Shimadzu UV-1601 with a CPS controller, Netherlands). The amount of ACE inhibition (ACEI) activity was calculated as a percentage of inhibition compared with the conversion rate of ACE in the absence of an inhibitor: ACEI (%) (((C1-C2)-(S1-S2))/(C1-C2))*100 (1) wherein • C1=Absorbance without ACE inhibitory component (=max. ACE activity) [AU]. • C2=Absorbance without ACE inhibitory component and without ACE (background) [AU]. • S1=Absorbance in the presence of ACE and the ACE inhibitory component [AU]. • S2=Absorbance in the presence of the ACE inhibitory component, but without ACE [AU].

Usually IC50 stands for the concentration at which inhibition is half-maximal. Lower therefore signals greater potency.

A value given as a limit tells only on which side of the number the result lay.

KVLPVP [Lys-Val-Leu-Pro-Val-Pro] showed a concentration for half-maximal inhibition (IC50) of 5 µM.
Take KVLPVPQ [Lys-Val-Leu-Pro-Val-Pro-Gln]: half-maximal inhibition (IC50) required 1000 µM.
The figure for Leu-Pro [LP] is greater than 1000 µM; for Leu-Pro-Val [LPV] it is greater than 1000 µM.
The figure for “Leu-Pro-Val-Pro (LPVP; printed: Leu-Pro-Val-Pro)” is 250 µM; for Val-Leu-Pro [VLP] it is 120 µM.

The values above are taken from patent publication US20050008751A1, “Fermented milk product” (Unilever Bestfoods, North America, priority 2001, published 2005).
